Patent US12662491B2 (Redona Therapeutics, Inc., priority 2020, dated 2026)
Read-outs that look alike come from different tables or passages of the source.

Molecular target: T1, Zcchc11 enzyme (Homo sapiens, UniProt Q5TAX3)
T1 construct: made in house; host or cells: HEK293 cells (Zcchc11); E. coli Rosetta II (LIN28A)
T1 sequence (Q5TAX3 212-1420): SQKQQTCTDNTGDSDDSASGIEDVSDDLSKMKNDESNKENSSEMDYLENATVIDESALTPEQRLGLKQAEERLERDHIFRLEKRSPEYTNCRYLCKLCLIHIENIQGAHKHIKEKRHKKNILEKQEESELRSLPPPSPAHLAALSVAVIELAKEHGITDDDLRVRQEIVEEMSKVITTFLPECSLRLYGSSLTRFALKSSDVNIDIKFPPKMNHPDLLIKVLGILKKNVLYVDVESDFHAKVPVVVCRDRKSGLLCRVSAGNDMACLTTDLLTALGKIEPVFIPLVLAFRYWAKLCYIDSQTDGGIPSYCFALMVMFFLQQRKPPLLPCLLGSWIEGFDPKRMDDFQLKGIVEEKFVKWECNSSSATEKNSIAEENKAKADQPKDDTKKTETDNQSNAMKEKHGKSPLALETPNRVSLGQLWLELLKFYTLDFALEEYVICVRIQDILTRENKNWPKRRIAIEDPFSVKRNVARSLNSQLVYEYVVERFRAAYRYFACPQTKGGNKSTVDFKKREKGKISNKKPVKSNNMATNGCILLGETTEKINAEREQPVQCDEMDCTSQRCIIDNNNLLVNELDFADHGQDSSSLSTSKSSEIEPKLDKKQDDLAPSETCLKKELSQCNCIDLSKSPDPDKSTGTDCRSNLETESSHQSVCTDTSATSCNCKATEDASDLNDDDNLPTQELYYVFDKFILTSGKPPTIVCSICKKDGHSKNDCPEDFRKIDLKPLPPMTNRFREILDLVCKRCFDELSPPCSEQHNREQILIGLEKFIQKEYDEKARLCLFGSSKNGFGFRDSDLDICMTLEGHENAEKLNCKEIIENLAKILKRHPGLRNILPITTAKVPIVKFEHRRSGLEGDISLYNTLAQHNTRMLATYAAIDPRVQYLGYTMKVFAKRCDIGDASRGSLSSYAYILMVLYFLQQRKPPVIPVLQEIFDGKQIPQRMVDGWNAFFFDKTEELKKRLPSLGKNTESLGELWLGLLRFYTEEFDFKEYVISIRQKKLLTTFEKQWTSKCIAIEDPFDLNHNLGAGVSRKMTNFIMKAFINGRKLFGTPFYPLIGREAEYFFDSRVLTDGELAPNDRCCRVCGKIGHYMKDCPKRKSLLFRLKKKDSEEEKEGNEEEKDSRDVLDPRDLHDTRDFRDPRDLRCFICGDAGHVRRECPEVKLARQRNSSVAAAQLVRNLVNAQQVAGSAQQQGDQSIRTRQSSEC
Test: TUTase assay (Zcchc11 assay, Lin28a-dependent polyuridylation of pre-let-7)
Assay type: biochemical
Details: read-out: Potency Lin28a-dep Z11 IC50
How it was run: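 Human Zcchc11 residues 212-1420 (HEK293-expressed, MBP tag cleaved, C-terminal FLAG) at 0.2 nM, with 10 nM full-length human LIN28A and 2 nM 5′-fluorescein pre-let-7, preincubated with compound 30 min at room temperature. Reaction started with 5 uM UTP plus 4 nM 3′-rhodamine A20 quench probe; fluorescein loss read kinetically, IC50 from initial rates.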

[1] = Lin28a-dependent Zcchc11 (Z11) TUTase activity
[2] = LIN28A 10 nM, Zcchc11 0.2 nM, 5′-fluorescein pre-let-7 miRNA 2 nM, UTP 5 uM, room temperature, 30 minutes pre-incubation
[3] = Lin28a-dependent Zcchc11 (Z11) TUTase assay

SMILES	IC50 [1]	IC50 [3]	further results
CN(C)C1CN(c2ccc(-n3cc(C(=O)O)c(=O)c4cc(F)c(N5C[C@@H](c6cccnc6)C[C@@H]5COc5ncccc5Cl)cc43)cn2)C1 (single isomer, unassigned) [Compound 329]	≤ 1000 nM	–	–
CC(Oc1ncccc1Cl)[C@H]1CCCN1c1cc2c(cc1Cl)c(=O)c(C(=O)O)cn2-c1ccccc1 (stereo partly drawn) [Example 8, (R)-6-chloro-7-(2-(1-((3-chloropyridin-2-yl)oxy)ethyl)pyrrolidin-1-yl)-4-oxo-1-phenyl-1,4-dihydroquinoline-3-carboxylic acid]	–	–	IC50 [2]: 1000 to 10000 nM
O=C(O)c1cn(-c2ccc3c(c2F)CCN3)c2cc(N3CCC[C@@H]3COc3ccccn3)c(F)cc2c1=O [Example 32, (R)-6-fluoro-1-(4-fluoroindolin-5-yl)-4-oxo-7-(2-((pyridin-2-yloxy)methyl)pyrrolidin-1-yl)-1,4-dihydroquinoline-3-carboxylic acid]	–	–	IC50 [2]: ≤ 1000 nM
O=C(O)c1cn(-c2ncccn2)c2cc(N3CCC[C@@H]3COc3ccccn3)c(Cl)cc2c1=O [Example 2, (R)-6-chloro-4-oxo-7-(2-((pyridin-2-yloxy)methyl)pyrrolidin-1-yl)-1-(pyrimidin-2-yl)-1,4-dihydroquinoline-3-carboxylic acid]	–	–	IC50 [2]: 1000 to 10000 nM
COc1ccc(Cl)c(OCC2C3CC(C3)N2c2cc3c(cc2Cl)c(=O)c(C(=O)O)cn3-c2ccc(N3CC(N(C)C)C3)nc2)n1 (centres unmarked) [Compound 202, 6-chloro-7-(3-(((3-chloro-6-methoxy-pyridin-2-yl)oxy)methyl)-2-azabicyclo [2.1.1]hexan-2-yl)-1-(6-(3-(dimethyl-amino)azetidin-1-yl)pyridin-3-yl)-4-oxo-1,4-dihydro-quinoline-3-carboxylic acid]	≤ 1000 nM	–	–
COc1ccc(Cl)c(OC[C@H]2CC3(CC3)CN2c2cc3c(cc2Cl)c(=O)c(C(=O)O)cn3-c2ccc(N3CC(N(C)C)C3)nc2)n1 [Example 663, (R)-6-chloro-7-(6-(((3-chloro-6-methoxypyridin-2-yl)oxy)methyl)-5-azaspiro[2.4]heptan-5-yl)-1-(6-(3-(dimethylamino)azetidin-1-yl)pyridin-3-yl)-4-oxo-1,4-dihydroquinoline-3-carboxylic acid]	–	≤ 1000 nM	–
O=C(O)c1cn(-c2cnc(OCCO)cn2)c2cc(N3CCC[C@@H]3COc3ncccc3Cl)c(Cl)cc2c1=O [Example 45, 6-chloro-7-[(2R)-2-[[(3-chloropyridin-2-yl)oxy]methyl]pyrrolidin-1-yl]-1-[5-(2-hydroxyethoxy)pyrazin-2-yl]-4-oxoquinoline-3-carboxylic acid]	–	–	IC50 [2]: ≤ 1000 nM
CC(C)C1C[C@H](COc2ncccc2Cl)N(c2cc3c(cc2Cl)c(=O)c(C(=O)O)cn3-c2ccc(N3CC(N(C)C)C3)nc2)C1 (mixture of isomers) [Compound 223, Rac-6-chloro-7-((2R)-2-(((3-chloropyridin-2-yl)oxy)methyl)-4-isopropyl-pyrrolidin-1-yl)-1-(6-(3-(dimethyl-amino)azetidin-1-yl)pyridin-3-yl)-4-oxo-1,4-dihydro-quinoline-3-carboxylic acid]	≤ 1000 nM	–	–
Cc1cc2c(=O)c(C(=O)O)cn(-c3ccc(N4CC(N(C)C)C4)nc3)c2cc1N1C[C@@H](F)C[C@@H]1COc1ncccc1Cl [Example 467, 7-((2R,4S)-2-(((3-chloropyridin-2-yl)oxy)methyl)-4-fluoropyrrolidin-1-yl)-1-(6-(3-(dimethylamino)azetidin-1-yl)pyridin-3-yl)-6-methyl-4-oxo-1,4-dihydroquinoline-3-carboxylic acid]	–	≤ 1000 nM	–
O=C(O)c1cn(-c2ccc(O)cc2)c2cc(N3CCC[C@@H]3CNc3ncccc3Cl)c(F)cc2c1=O [Compound 112, (R)-7-(2-(((3-chloropyridin-2-yl)amino)methyl)pyrrolidin-1-yl)-6-fluoro-1-(4-hydroxy-phenyl)-4-oxo-1,4-dihydro-quinoline-3-carboxylic acid]	≤ 1000 nM	–	–
CN(C)c1ccc(Cl)c(OC[C@H]2CC3CC3N2c2cc3c(cc2Cl)c(=O)c(C(=O)O)cn3-c2ccc(N3CC(N(C)C)C3)nc2)n1 (stereo partly drawn) [Example 665, 6-chloro-7-((3R)-3-(((3-chloro-6-(dimethylamino)pyridin-2-yl)oxy)methyl)-2-azabicyclo[3.1.0]hexan-2-yl)-1-(6-(3-(dimethylamino)azetidin-1-yl)pyridin-3-yl)-4-oxo-1,4-dihydroquinoline-3-carboxylic acid]	–	≤ 1000 nM	–
CCc1ccccc1-n1cc(C(=O)O)c(=O)c2cc(F)c(N3CCC[C@@H]3COc3ccccn3)cc21 [Compound 161, (R)-1-(2-ethylphenyl)-6-fluoro-4-oxo-7-(2-((pyridin-2-yloxy)methyl)pyrrolidin-1-yl)-1,4-dihydro-quinoline-3-carboxylic acid]	1000 to 10000 nM	–	–
COCCN(C)C1CN(c2ccc(-n3cc(C(=O)O)c(=O)c4cc(Cl)c(N5CCC[C@@H]5COc5nc(N(C)C)ccc5Cl)cc43)cn2)C1 [Example 657, (R)-6-chloro-7-(2-(((3-chloro-6-(dimethylamino)pyridin-2-yl)oxy)methyl)pyrrolidin-1-yl)-1-(6-(3-((2-methoxyethyl) (methyl)amino)azetidin-1-yl)pyridin-3-yl)-4-oxo-1,4-dihydroquinoline-3-carboxylic acid]	–	≤ 1000 nM	–
CN(C)c1ccc(Cl)c(OC[C@H]2C[C@@H]3C[C@@H]3N2c2cc3c(cc2F)c(=O)c(C(=O)O)cn3-c2ccc(N3CC(N(C)C)C3)nc2)n1 [Compound 335, 7-[(1S,3R,5S)-3-({[3-Chloro-6-(dimethyl-amino)pyridin-2-yl]oxy}methyl)-2-azabicyclo [3.1.0]hexan-2-yl]-1-{6-[3-(dimethyl-amino)azetidin-1-yl]pyridin-3-yl}-6-fluoro-4-oxoquinoline-3-carboxylic acid]	≤ 1000 nM	–	–
COC1CC(n2cc(C(=O)O)c(=O)c3cc(F)c(N4CCC[C@@H]4COc4ncccc4C)cc32)C1 (stereo partly drawn) [Example 30, (R)-6-fluoro-1-(3-methoxycyclobutyl)-7-(2-(((3-methylpyridin-2-yl)oxy)methyl)pyrrolidin-1-yl)-4-oxo-1,4-dihydroquinoline-3-carboxylic acid]	–	–	IC50 [2]: ≤ 1000 nM

More lines, main results first:

IC50 [1]	IC50 [3]	SMILES	further results
≤ 1000 nM	–	O=C(O)c1cn(-c2ccc(Cl)cc2)c2cc(N3CCC[C@@H]3COc3ccccn3)c(F)cc2c1=O [Compound 145, (R)-1-(4-chlorophenyl)-6-fluoro-4-oxo-7-(2-((pyridin-2-yloxy)methyl)pyrrolidin-1-yl)-1,4-dihydro-quinoline-3-carboxylic acid]	–
≤ 1000 nM	–	Cc1cccnc1OC[C@H]1CCCN1c1cc2c(cc1Cl)c(=O)c(C(=O)O)cn2-c1ccc(N)nc1 [Compound 210, (R)-1-(6-aminopyridin-3-yl)-6-chloro-7-(2-(((3-methylpyridin-2-yl)oxy)methyl)pyrrolidin-1-yl)-4-oxo-1,4-dihydro-quinoline-3-carboxylic acid]	–
–	≤ 1000 nM	O=C(O)c1cn(-c2ncccn2)c2cc(N3CCC[C@@H]3COc3ncccc3Cl)c(Cl)cc2c1=O [Example 500, (R)-6-chloro-7-(2-(((3-chloropyridin-2-yl)oxy)methyl)pyrrolidin-1-yl)-4-oxo-1-(pyrimidin-2-yl)-1,4-dihydroquinoline-3-carboxylic acid]	–
≤ 1000 nM	–	O=C(O)c1cn(-c2ccccc2)c2cc(N3CCC[C@@H]3COc3ncccc3F)c(F)cc2c1=O [Compound 98, (R)-6-fluoro-7-(2-(((3-fluoropyridin-2-yl)oxy)methyl)pyrrolidin-1-yl)-4-oxo-1-phenyl-1,4-dihydro-quinoline-3-carboxylic acid]	–
–	≤ 1000 nM	COc1cnc(OC[C@H]2CCCN2c2cc3c(cc2Cl)c(=O)c(C(=O)O)cn3-c2ccc(N3CC(N(C)C)C3)nc2)c(Cl)c1 [Example 629, (R)-6-chloro-7-(2-(((3-chloro-5-methoxypyridin-2-yl)oxy)methyl)pyrrolidin-1-yl)-1-(6-(3-(dimethylamino)aztidin-1-yl)pyridin-3-yl)-4-oxo-1,4-dihydroquinoline-3-carboxylic acid]	–
